# Test results from patent US20220331303A1, “USE OF AN OREXIN 2 RECEPTOR AGONIST FOR THE TREATMENT OF EXCESSIVE SLEEPINESS” (Takeda Pharmaceutical Company Limited, priority 2019, published 2022).
# Where two headings read alike, the source gives them in different places.
# Tests used:
# Type in all cases: in vivo, human
# [1] = Multiple-dose plasma PK of IV Compound A in patients with NT2; settings: for Cmax / concentration at 1 h / concentration at 2 h / concentration at 4 h / concentration at 6 h / concentration at 9 h / Tmax / AUC(0-inf) / AUC(0-t) / AUC / clearance / Vd: human, plasma, intravenous; for concentration at 1 h: 1 Hour Postdose at Day 1; for concentration at 2 h: 2 Hours Postdose at Day 1; for concentration at 4 h: 4 Hours Postdose at Day 1; for concentration at 6 h: 6 Hours Postdose at Day 1; for clearance: read-out: CL Mean (converted)
# Description: (§1) The purpose of the study was to evaluate the safety, tolerability, pharmacokinetics and pharmacodynamics of Compound A after multiple days of IV administration in patients with NT2. NT2 patients were evaluated in Cohort C1 and C2 (Table 30). Compound A or placebo were administered via IV infusion over 9 hours once daily for 7 days. A total of 14 patients with NT2 were treated with Compound A or placebo (5, 4, and 5 subjects in the placebo, Compound A 44 mg, and Compound A 112 mg groups, respectively). In this part, potential efficacy of Compound A was evaluated with MWT, ESS, KSS, night-time PSG (NPSG), and PGI-C as an exploratory PD assessment.
# Blood samples used for PK analysis of Compound A was collected according to Table 31. See also FIG. 10 for whole schedules of study procedures.
# [2] = test system: patients with NT2; experiment: KSS in patients with NT2; settings: 9 hours postdose
# Description: as §1
# [3] = test system: subjects with obstructive sleep apnea; experiment: MWT in subjects with OSA experiencing EDS despite CPAP; settings: single 9-hour IV infusion
# Description: The treatment periods began on Day 1 of Treatment Period 1 (Study Day 1) with Treatment Periods 2 and 3 commencing on Study Days 3 and 5, respectively. In the morning of Day 1 of Treatment Period 1, eligible subjects were randomized to 1 of the 6 sequence groups as listed in Table 36. After randomization, the subject was dosed in 3 treatment periods according to the order defined by the sequence group to which he/she was randomized. On Day 1 of each treatment period, Compound A or placebo was administered as a single 9-hour IV infusion commencing at approximately 08:00. The infusion was terminated at approximately 17:00. On Day 1 of each treatment period, four 40-minute maintenance of wakefulness test (MWT) sessions was performed at 2, 4, 6, and 8 hours after the start of the infusion. Subjects were required to stay awake in between the MWT sessions.
# On Day 1 of Treatment Period 1, all eligible subjects were randomized and received the first dose of study drug. Compound A or placebo was administered as a single 9-hour IV infusion commencing at approximately 08:00. […] Blood samples for determination of Compound A plasma concentrations were collected predose and at specified time points postdose, Safety assessments were recorded. During the study, AEs were recorded, clinical laboratory tests, vital signs, and safety ECGs were obtained. […]
smiles,measurement,setting,value
"COC(=O)N1CCC[C@H](NS(C)(=O)=O)[C@@H]1CO[C@H]1CC[C@@H](c2ccccc2)CC1 [Compound A, methyl (2R,3S)-3-((methylsulfonyl)amino)-2-(((cis-4-phenylcyclohexyl)oxy)methyl)piperidine-1-carboxylate]",Plasma Concentration Mean,"[1]; Cmpd A 44 mg, 0.17 Hour after End of Infusion at Day 1",45.48 ng/mL
same,Plasma Concentration Mean,"[1]; Cmpd A 44 mg, 0.5 Hour after End of Infusion at Day 1",33.98 ng/mL
same,Plasma Concentration Mean,"[1]; Cmpd A 44 mg, 2 Hours after End of Infusion at Day 1",16.33 ng/mL
same,Plasma Concentration Mean,"[1]; Cmpd A 44 mg, 6 Hours after End of Infusion at Day 1",5.020 ng/mL
same,Plasma Concentration Mean,"[1]; Cmpd A 44 mg, 9 Hours Postdose at Day 5",73.15 ng/mL
same,Plasma Concentration Mean,"[1]; Cmpd A 44 mg, 9 Hours Postdose at Day 6",65.80 ng/mL
same,Plasma Concentration Mean,"[1]; Cmpd A 44 mg, 10 Hours after End of Infusion at Day 1",2.515 ng/mL
same,Plasma Concentration Mean,"[1]; Cmpd A 44 mg, 14 Hours after End of Infusion at Day 1",0.7016 ng/mL
same,AUCtau D Mean,"[1]; Cmpd A 44 mg, Day 1",14.83 ng·h/mL/mg
same,Cmax D Mean,"[1]; Cmpd A 44 mg, Day 1",1.685 ng/mL/mg
same,t½z Mean,"[1]; Cmpd A 44 mg, Day 1",2.708 h
same,AUCtau D Mean,"[1]; Cmpd A 44 mg, Day 7",15.00 ng·h/mL/mg
same,Cmax D Mean,"[1]; Cmpd A 44 mg, Day 7",1.745 ng/mL/mg
same,PTR Mean,"[1]; Cmpd A 44 mg, Day 7",202.0
same,UCtau Geo Mean,"[1]; Cmpd A 44 mg, Day 7",657.1 ng·h/mL
same,UCtau Mean,"[1]; Cmpd A 44 mg, Day 7",660.0 ng·h/mL
same,t½z Mean,"[1]; Cmpd A 44 mg, Day 7",2.643 h
same,Plasma Concentration Mean,"[1]; Cmpd A 44 mg, Predose at Day 1",0.000 ng/mL
same,Plasma Concentration Mean,"[1]; Cmpd A 44 mg, Predose at Day 5",0.9273 ng/mL
same,Plasma Concentration Mean,"[1]; Cmpd A 44 mg, Predose at Day 6",0.7163 ng/mL
same,Plasma Concentration Mean,"[1]; Cmpd A 44 mg, Predose at Day 7",0.5635 ng/mL
same,Plasma Concentration Mean,"[1]; Cmpd A 112 mg, 0.17 Hour after End of Infusion at Day 1",81.03 ng/mL
same,Plasma Concentration Mean,"[1]; Cmpd A 112 mg, 0.5 Hour after End of Infusion at Day 1",75.26 ng/mL
same,Plasma Concentration Mean,"[1]; Cmpd A 112 mg, 2 Hours after End of Infusion at Day 1",32.46 ng/mL
same,Plasma Concentration Mean,"[1]; Cmpd A 112 mg, 6 Hours after End of Infusion at Day 1",12.03 ng/mL
same,Plasma Concentration Mean,"[1]; Cmpd A 112 mg, 10 Hours after End of Infusion at Day 1",5.610 ng/mL
same,AUCtau D Mean,"[1]; Cmpd A 112 mg, Day 1",13.52 ng·h/mL/mg
same,Cmax D Mean,"[1]; Cmpd A 112 mg, Day 1",1.540 ng/mL/mg
same,t½z Mean,"[1]; Cmpd A 112 mg, Day 1",2.800 h
same,AUCtau D Mean,"[1]; Cmpd A 112 mg, Day 7",13.68 ng·h/mL/mg
same,Cmax D Mean,"[1]; Cmpd A 112 mg, Day 7",1.550 ng/mL/mg
same,PTR Mean,"[1]; Cmpd A 112 mg, Day 7",201.1
same,UCtau Geo Mean,"[1]; Cmpd A 112 mg, Day 7",1519 ng·h/mL
same,UCtau Mean,"[1]; Cmpd A 112 mg, Day 7",1534 ng·h/mL
same,t½z Mean,"[1]; Cmpd A 112 mg, Day 7",3.136 h
same,Plasma Concentration Mean,"[1]; Cmpd A 112 mg, Predose at Day 1",0.000 ng/mL
same,Drug accumulation,[1]; QD 9-hour IV infusion daily for 7 days,no drug accumulation was observed
same,Dose proportionality of mean plasma systemic exposures,"[1]; daily 9-hour IV infusions, 44 and 112 mg",generally increased in a dose proportional manner
same,Cmax,"[1]; 44 mg, Cmax Geo Mean, Cmpd A 44 mg, Day 7",76.4 ng/mL
same,concentration at 1 h,"[1]; 44 mg, Cmpd A 44 mg",47.4 ng/mL
same,concentration at 2 h,"[1]; 44 mg, Cmpd A 44 mg",59 ng/mL
same,concentration at 4 h,"[1]; 44 mg, Cmpd A 44 mg",74.1 ng/mL
same,concentration at 6 h,"[1]; 44 mg, Cmpd A 44 mg",50 ng/mL
same,concentration at 9 h,"[1]; 44 mg, Cmpd A 44 mg, 9 Hours Postdose at Day 1, read-out: Plasma Concentration Mean",69 ng/mL
same,Tmax,"[1]; 44 mg, Cmpd A 44 mg, Day 1",3.88 h
same,AUC(0-inf),"[1]; 44 mg, Cmpd A 44 mg, Day 1, read-out: AUCinf Geo mean",651 ng·h/mL
same,AUC(0-inf),"[1]; 44 mg, Cmpd A 44 mg, Day 1, read-out: AUCinf Mean",655 ng·h/mL
same,AUC(0-t),"[1]; 44 mg, Cmpd A 44 mg, Day 1, read-out: AUClast Geo mean",648 ng·h/mL
same,AUC(0-t),"[1]; 44 mg, Cmpd A 44 mg, Day 1, read-out: AUClast Mean",652 ng·h/mL
same,AUC,"[1]; 44 mg, Cmpd A 44 mg, Day 1, read-out: AUCtau Geo mean",648 ng·h/mL
same,AUC,"[1]; 44 mg, Cmpd A 44 mg, Day 1, read-out: AUCtau Mean",652 ng·h/mL
same,clearance,"[1]; 44 mg, Cmpd A 44 mg, Day 1",1130 mL/min
same,concentration at 9 h,"[1]; 44 mg, Cmpd A 44 mg, Day 1, read-out: Ceoi Geo mean",68.7 ng/mL
same,concentration at 9 h,"[1]; 44 mg, Cmpd A 44 mg, Day 1, read-out: Ceoi Mean",69 ng/mL
same,Cmax,"[1]; 44 mg, Cmpd A 44 mg, Day 1, read-out: Cmax Geo mean",73.9 ng/mL
same,Cmax,"[1]; 44 mg, Cmpd A 44 mg, Day 1, read-out: Cmax Mean",74.1 ng/mL
same,Vd,"[1]; 44 mg, Cmpd A 44 mg, Day 1, read-out: Vss Mean",122 L
same,Vd,"[1]; 44 mg, Cmpd A 44 mg, Day 1, read-out: Vz Mean",288 L
same,Tmax,"[1]; 44 mg, Cmpd A 44 mg, Day 7",3.91 h
same,AUC(0-t),"[1]; 44 mg, Cmpd A 44 mg, Day 7, read-out: AUClast Geo Mean",657 ng·h/mL
same,AUC(0-t),"[1]; 44 mg, Cmpd A 44 mg, Day 7, read-out: AUClast Mean",660 ng·h/mL
same,clearance,"[1]; 44 mg, Cmpd A 44 mg, Day 7",1120 mL/min
same,Cmax,"[1]; 44 mg, Cmpd A 44 mg, Day 7, read-out: Cmax Mean",76.7 ng/mL
same,Vd,"[1]; 44 mg, Cmpd A 44 mg, Day 7, read-out: Vss Mean",114 L
same,Vd,"[1]; 44 mg, Cmpd A 44 mg, Day 7, read-out: Vz Mean",258 L
same,Cmax,"[1]; 112 mg, Cmax Geo Mean, Cmpd A 112 mg, Day 7",172 ng/mL
same,concentration at 1 h,"[1]; 112 mg, Cmpd A 112 mg",123 ng/mL
same,concentration at 2 h,"[1]; 112 mg, Cmpd A 112 mg",142 ng/mL
same,concentration at 4 h,"[1]; 112 mg, Cmpd A 112 mg",170 ng/mL
same,concentration at 6 h,"[1]; 112 mg, Cmpd A 112 mg",138 ng/mL
same,concentration at 9 h,"[1]; 112 mg, Cmpd A 112 mg, 9 Hours Postdose at Day 1, read-out: Plasma Concentration Mean",150 ng/mL
same,Tmax,"[1]; 112 mg, Cmpd A 112 mg, Day 1",4.93 h
same,AUC(0-inf),"[1]; 112 mg, Cmpd A 112 mg, Day 1, read-out: AUCinf Geo mean",1500 ng·h/mL
same,AUC(0-inf),"[1]; 112 mg, Cmpd A 112 mg, Day 1, read-out: AUCinf Mean",1520 ng·h/mL
same,AUC(0-t),"[1]; 112 mg, Cmpd A 112 mg, Day 1, read-out: AUClast Geo mean",1500 ng·h/mL
same,AUC(0-t),"[1]; 112 mg, Cmpd A 112 mg, Day 1, read-out: AUClast Mean",1520 ng·h/mL
same,AUC,"[1]; 112 mg, Cmpd A 112 mg, Day 1, read-out: AUCtau Geo mean",1500 ng·h/mL
same,AUC,"[1]; 112 mg, Cmpd A 112 mg, Day 1, read-out: AUCtau Mean",1520 ng·h/mL
same,clearance,"[1]; 112 mg, Cmpd A 112 mg, Day 1",1260 mL/min
same,concentration at 9 h,"[1]; 112 mg, Cmpd A 112 mg, Day 1, read-out: Ceoi Geo mean",156 ng/mL
same,concentration at 9 h,"[1]; 112 mg, Cmpd A 112 mg, Day 1, read-out: Ceoi Mean",158 ng/mL
same,Cmax,"[1]; 112 mg, Cmpd A 112 mg, Day 1, read-out: Cmax Geo mean",171 ng/mL
same,Cmax,"[1]; 112 mg, Cmpd A 112 mg, Day 1, read-out: Cmax Mean",172 ng/mL
same,Vd,"[1]; 112 mg, Cmpd A 112 mg, Day 1, read-out: Vss Mean",121 L
same,Vd,"[1]; 112 mg, Cmpd A 112 mg, Day 1, read-out: Vz Mean",299 L
same,AUC(0-t),"[1]; 112 mg, Cmpd A 112 mg, Day 7, read-out: AUClast Geo Mean",1520 ng·h/mL
same,AUC(0-t),"[1]; 112 mg, Cmpd A 112 mg, Day 7, read-out: AUClast Mean",1530 ng·h/mL
same,clearance,"[1]; 112 mg, Cmpd A 112 mg, Day 7",1240 mL/min
same,Cmax,"[1]; 112 mg, Cmpd A 112 mg, Day 7, read-out: Cmax Mean",173 ng/mL
same,Vd,"[1]; 112 mg, Cmpd A 112 mg, Day 7, read-out: Vss Mean",124 L
same,Vd,"[1]; 112 mg, Cmpd A 112 mg, Day 7, read-out: Vz Mean",338 L
same,Mean change from baseline in KSS,"[2]; Compound A 44 mg, Day 1",−0.5
same,Mean change from baseline in KSS,"[2]; Compound A 44 mg, Day 7",0.0
same,Mean change from baseline in KSS,"[2]; Compound A 112 mg, Day 1",−1.0
same,Mean change from baseline in KSS,"[2]; Compound A 112 mg, Day 7",−0.8
same,Mean placebo-adjusted increase in sleep latency in the MWT,[3]; Compound A 44 mg,22 min
same,Mean placebo-adjusted increase in sleep latency in the MWT,[3]; Compound A 112 mg,28 min
